From PubChem BioAssay (NCI)
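How tested: cells in 96-well plates exposed to compound for 48 hours at five concentrations. At the TGI there is no net growth.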

Tests used:
Assay in all cases: DTP human tumour cell line panel, 48 h
LOX IMVI melanoma = test system: LOX IMVI melanoma
SK-MEL-2 melanoma = test system: SK-MEL-2 melanoma
UACC-257 melanoma = test system: UACC-257 melanoma
OVCAR-5 ovarian = test system: OVCAR-5 ovarian
KM12 colon = test system: KM12 colon
SNB-19 CNS = test system: SNB-19 CNS
MDA-N = test system: MDA-N
RPMI-8226 leukemia = test system: RPMI-8226 leukemia
BT-549 breast = test system: BT-549 breast
HCT-15 colon = test system: HCT-15 colon
HCC-2998 colon = test system: HCC-2998 colon
PC-3 prostate = test system: PC-3 prostate
MALME-3M melanoma = test system: MALME-3M melanoma
786-0 renal = test system: 786-0 renal
SK-MEL-28 melanoma = test system: SK-MEL-28 melanoma
ACHN renal = test system: ACHN renal
NCI-H460 lung = test system: NCI-H460 lung
SR leukemia = test system: SR leukemia
MOLT-4 leukemia = test system: MOLT-4 leukemia
HCT-116 colon = test system: HCT-116 colon
A498 renal = test system: A498 renal
TK-10 renal = test system: TK-10 renal
SF-539 CNS = test system: SF-539 CNS
IGROV1 ovarian = test system: IGROV1 ovarian
SW-620 colon = test system: SW-620 colon
NCI-H23 lung = test system: NCI-H23 lung
DU-145 prostate = test system: DU-145 prostate
HL-60(TB) leukemia = test system: HL-60(TB) leukemia
SK-OV-3 ovarian = test system: SK-OV-3 ovarian
NCI-H226 lung = test system: NCI-H226 lung
NCI-H522 lung = test system: NCI-H522 lung
M14 melanoma = test system: M14 melanoma
CAKI-1 renal = test system: CAKI-1 renal
CCRF-CEM leukemia = test system: CCRF-CEM leukemia
HOP-92 NSCLC = test system: HOP-92 NSCLC
NCI/ADR-RES ovarian = test system: NCI/ADR-RES ovarian
T-47D breast = test system: T-47D breast
COLO 205 colon = test system: COLO 205 colon
MDA-MB-231 breast = test system: MDA-MB-231 breast
SF-268 CNS = test system: SF-268 CNS
MDA-MB-435 = test system: MDA-MB-435
A549 NSCLC = test system: A549 NSCLC
OVCAR-4 ovarian = test system: OVCAR-4 ovarian
HS 578T breast = test system: HS 578T breast
UACC-62 melanoma = test system: UACC-62 melanoma
MCF7 breast = test system: MCF7 breast
HOP-62 NSCLC = test system: HOP-62 NSCLC
UO-31 renal = test system: UO-31 renal
OVCAR-8 ovarian = test system: OVCAR-8 ovarian
RXF 393 renal = test system: RXF 393 renal
K-562 leukemia = test system: K-562 leukemia
U251 CNS = test system: U251 CNS
SK-MEL-5 melanoma = test system: SK-MEL-5 melanoma
EKVX NSCLC = test system: EKVX NSCLC
OVCAR-3 ovarian = test system: OVCAR-3 ovarian
HT29 colon = test system: HT29 colon
SF-295 CNS = test system: SF-295 CNS
SN12C renal = test system: SN12C renal
SNB-75 CNS = test system: SNB-75 CNS

## CCCC(=O)NC(Nc1ccc(F)cc1)(C(F)(F)F)C(F)(F)F
LOX IMVI melanoma
  TGI: > 100 µM
SK-MEL-2 melanoma
  TGI: 67 µM
UACC-257 melanoma
  TGI: > 100 µM
OVCAR-5 ovarian
  TGI: > 100 µM
KM12 colon
  TGI: > 100 µM
SNB-19 CNS
  TGI: > 100 µM
MDA-N
  TGI: > 100 µM
RPMI-8226 leukemia
  TGI: > 100 µM
BT-549 breast
  TGI: > 100 µM
HCT-15 colon
  TGI: > 100 µM
HCC-2998 colon
  TGI: > 100 µM
PC-3 prostate
  TGI: > 100 µM
MALME-3M melanoma
  TGI: > 100 µM
786-0 renal
  TGI: > 100 µM
SK-MEL-28 melanoma
  TGI: > 100 µM
ACHN renal
  TGI: > 100 µM
NCI-H460 lung
  TGI: > 100 µM
SR leukemia
  TGI: > 100 µM
MOLT-4 leukemia
  TGI: > 100 µM
HCT-116 colon
  TGI: > 100 µM
A498 renal
  TGI: > 100 µM
TK-10 renal
  TGI: > 100 µM
SF-539 CNS
  TGI: > 100 µM
IGROV1 ovarian
  TGI: > 100 µM
SW-620 colon
  TGI: > 100 µM
NCI-H23 lung
  TGI: > 100 µM
DU-145 prostate
  TGI: > 100 µM
HL-60(TB) leukemia
  TGI: > 100 µM
SK-OV-3 ovarian
  TGI: > 100 µM
NCI-H226 lung
  TGI: > 100 µM
NCI-H522 lung
  TGI: > 100 µM
M14 melanoma
  TGI: > 100 µM
CAKI-1 renal
  TGI: > 100 µM
CCRF-CEM leukemia
  TGI: > 26.7 µM
HOP-92 NSCLC
  TGI: > 100 µM
NCI/ADR-RES ovarian
  TGI: > 100 µM
T-47D breast
  TGI: > 100 µM
COLO 205 colon
  TGI: > 92.8 µM
MDA-MB-231 breast
  TGI: > 100 µM
SF-268 CNS
  TGI: > 100 µM
MDA-MB-435
  TGI: > 100 µM
A549 NSCLC
  TGI: > 100 µM
OVCAR-4 ovarian
  TGI: > 74.2 µM
HS 578T breast
  TGI: > 100 µM
UACC-62 melanoma
  TGI: > 100 µM
MCF7 breast
  TGI: > 100 µM
HOP-62 NSCLC
  TGI: > 100 µM
UO-31 renal
  TGI: > 100 µM
OVCAR-8 ovarian
  TGI: > 100 µM
RXF 393 renal
  TGI: > 100 µM
K-562 leukemia
  TGI: > 100 µM
U251 CNS
  TGI: > 100 µM
SK-MEL-5 melanoma
  TGI: > 100 µM
EKVX NSCLC
  TGI: > 100 µM
OVCAR-3 ovarian
  TGI: > 100 µM
HT29 colon
  TGI: > 100 µM
SF-295 CNS
  TGI: > 100 µM
SN12C renal
  TGI: > 100 µM
SNB-75 CNS
  TGI: > 100 µM
